In publication PMC7092914 (Biochemical and Biophysical Research Communications, 2005):
“Also recorded” adds a separate entry of the source.

Molecular target: SARS-CoV 3CL protease (Severe acute respiratory syndrome coronavirus, UniProt P0C6X7)
Experiment: biochemical
Assay type: biochemical

Row | SMILES | IC50 [µM] | apparent Vmax in presence of inhibitor [µmol/min/mg] | dependence of inhibitory effect on preincubation time | inhibition mechanism / binding mode | potency relative to hexachlorophene (times less potent)
1 | Oc1c(Cl)cc(Cl)c(Cl)c1Cc1c(O)c(Cl)cc(Cl)c1Cl [hexachlorophene] | 5 | 6.98 ± 0.16 | dependent on preincubation time; also recorded: slowly binding inhibitor | classic competitive inhibitor | 
2 | Cc1c(O)cccc1C(=O)N[C@@H](CSc1ccccc1)[C@H](O)CN1C[C@H]2CCCC[C@H]2C[C@H]1C(=O)NC(C)(C)C [nelfinavir] | 46 |  |  |  | about 10 times
3 | Oc1cc(Cl)ccc1Oc1ccc(Cl)cc1Cl [triclosan] |  |  |  |  | about 10 times
